Columns and labels:
[1] = biological target: T1, CTF18–RFC bound to PCNA (ADP site in RFC3) (Homo sapiens, UniProt P40938); assay: cryo-EM structure ([…] Å without Mg2+; […] Å with Mg2+); assay type: binding; details: ADP in AAA+ site of RFC3, not added, probably co-purified; seen with and without Mg2+
T1 construct: same complex as P1; RFC3 with N-terminal His6 tag, insect cells; Ctf8/Dcc1 module not resolved in map; with Chromosome transmission fidelity protein 18 homolog; Replication factor C subunit 2; Replication factor C subunit 4; Replication factor C subunit 5; Sister chromatid cohesion protein DCC1; Chromosome transmission fidelity protein 8 homolog; Proliferating cell nuclear antigen

[2] = biological target: T2, CTF18–RFC bound to PCNA (ATP sites in Ctf18, RFC2, RFC5) (Homo sapiens, UniProt P35250+P40937+Q8WVB6); assay: as above; assay type: binding; details: ATP in AAA+ sites of Ctf18 (adenine density poor), RFC2 and RFC5; RFC4 empty; 0.5 mM ATP, pH 7.5, without Mg2+ or with 5 mM Mg2+ (Mg2+ seen in RFC2 and RFC5); autoinhibited state, closed PCNA
T2 construct: gene CHTF18; seven-subunit complex from insect cells (MultiBac, Sf9/Hi5); N-terminal twin-Strep-TEV tag (Ctf18, RFC2, RFC4) and N-terminal His6 tag (RFC3, RFC5, Dcc1, Ctf8), TEV treated; PCNA from E. coli; Ctf8/Dcc1 module not resolved in map; with Replication factor C subunit 4; Replication factor C subunit 3; Sister chromatid cohesion protein DCC1; Chromosome transmission fidelity protein 8 homolog; Proliferating cell nuclear antigen

cryo-EM structure (2.9 Å without Mg2+; 3.2 Å with Mg2+) [1]	SMILES	cryo-EM structure (2.9 Å without Mg2+; 3.2 Å with Mg2+) [2]
while ADP appears to engage RFC3	Nc1ncnc2c1ncn2[C@@H]1O[C@H](COP(=O)(O)OP(=O)(O)O)[C@@H](O)[C@H]1O [ADP]	–
–	Nc1ncnc2c1ncn2[C@@H]1O[C@H](COP(=O)(O)OP(=O)(O)OP(=O)(O)O)[C@@H](O)[C@H]1O [ATP]	ATP is bound to subunits Ctf18, RFC2, and RFC5, while ADP appears to engage RFC3

From PMC12928700, “Structure of the human CTF18−RFC clamp loader bound to PCNA” (eLife, 2026)
